Our source for the IC50 values is US10538555B2, “Macrocyclic inhibitors of the PD-1/PD-L1 and CD80(B7-1)/PD-L1 protein/protein interactions” (BRISTOL-MYERS SQUIBB COMPANY, priority 2014, dated 2020).

The target in this experiment is T1, Human PD-L1/PD-1 (Homo sapiens, UniProt Q9NZQ7).
T1 construct: TVMV protease cleavage site (C); made in house; host or cells: HEK293T cells
The experiment in a line: HTRF Human PD-L1/PD-1 binding assay (PD-1-Ig/PD-L1-His). The settings on record: PD-L1-His 10 nM, PD-1-Ig 20 nM. The procedure, abridged:
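HTRF read-out (665/620 nm ratio) after 30 min equilibration with Eu-cryptate anti-Ig mAb (1 nM) and APC anti-His mAb (20 nM). Peptides preincubated 15 min with PD-L1-His (10 nM), then PD-1-Ig (20 nM) added for 15 min.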

Where [1] appears, read: class symbol, read-out: HTRF Human PD-L1/PD-1 Binding Assay IC50 Range.

Read-outs that look alike come from different tables or passages of the source. Where a SMILES comes first, the peptide text is derived from it. Bridges are numbered along the chain shown (N, C = ends). [ ]: non-standard residue; d: D form. Hyp = O=C(O)[C@@H]1C[C@@H](O)CN1; NMeNle = CCCC[C@H](NC)C(=O)O; NMeA = CN[C@@H](C)C(=O)O; Orn = NCCC[C@H](N)C(=O)O; Dab = NCC[C@H](N)C(=O)O; Dap = NC[C@H](N)C(=O)O

T1 sequence (Q9NZQ7 with tags, fused parts or gaps): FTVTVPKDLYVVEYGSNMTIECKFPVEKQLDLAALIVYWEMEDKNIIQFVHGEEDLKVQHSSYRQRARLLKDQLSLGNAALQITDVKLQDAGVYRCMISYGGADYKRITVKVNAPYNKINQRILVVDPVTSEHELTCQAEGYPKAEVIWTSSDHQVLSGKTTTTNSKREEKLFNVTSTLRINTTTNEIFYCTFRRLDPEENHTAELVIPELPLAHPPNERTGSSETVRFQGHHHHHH

With `CCCC[C@H]1C(=O)N(C)[C@@H](CCCC)C(=O)N[C@@H](CCCN)C(=O)N[C@H](C(=O)NCC(N)=O)CSCC(=O)N[C@@H](Cc2ccc(OC)cc2)C(=O)N(C)[C@@H](C)C(=O)N[C@@H](CC(=O)O)C(=O)N2CCC[C@H]2C(=O)N[C@@H](Cc2cnc[nH]2)C(=O)N[C@@H](CCCCN)C(=O)N2C[C@H](O)C[C@H]2C(=O)N[C@@H](Cc2c[nH]c3ccccc23)C(=O)N[C@@H](CCN)C(=O)N[C@@H](Cc2c[nH]c3ccccc23)C(=O)N1C` [Example 7094] ({CH2CO}-Y(Me)[NMeA]DPHK[Hyp]W[Dab]W[NMeNle][NMeNle][Orn]CG-NH2; thioether N-14), the IC50 under setting [1] fell in the range of 1 to 9.9 nM.

Take `CCCC[C@H]1C(=O)N(C)[C@@H](CCCC)C(=O)N[C@@H](CCCN)C(=O)N[C@H](C(=O)NCC(N)=O)CSCC(=O)N[C@@H](Cc2ccc(OC)cc2)C(=O)N(C)[C@@H](C)C(=O)N[C@@H](CCN)C(=O)N2CCC[C@H]2C(=O)N[C@@H](Cc2cnc[nH]2)C(=O)N[C@@H](CCCCN)C(=O)N2C[C@H](O)C[C@H]2C(=O)N[C@@H](Cc2c[nH]c3ccccc23)C(=O)N[C@@H](CCN)C(=O)N[C@@H](Cc2c[nH]c3ccccc23)C(=O)N1C` [Example 7095] ({CH2CO}-Y(Me)[NMeA][Dab]PHK[Hyp]W[Dab]W[NMeNle][NMeNle][Orn]CG-NH2; thioether N-14): under setting [1], the IC50 was in the range of 1 to 9.9 nM. Consider `CCCC[C@H]1C(=O)N(C)[C@@H](CCCC)C(=O)N[C@@H](CCCN)C(=O)N[C@H](C(=O)NCC(N)=O)CSCC(=O)N[C@@H](Cc2ccc(OC)cc2)C(=O)N(C)[C@@H](C)C(=O)N[C@@H](CC(N)=O)C(=O)N2CCC[C@H]2C(=O)N[C@@H](Cc2cnc[nH]2)C(=O)N[C@@H](CCC(=O)O)C(=O)N2C[C@H](O)C[C@H]2C(=O)N[C@@H](Cc2c[nH]c3ccccc23)C(=O)N[C@@H](CC(=O)O)C(=O)N[C@@H](Cc2c[nH]c3ccccc23)C(=O)N1C` [Example 7097] ({CH2CO}-Y(Me)[NMeA]NPHE[Hyp]WDW[NMeNle][NMeNle][Orn]CG-NH2; thioether N-14), for which the IC50 under setting [1] was 1 to 9.9 nM. Same read-out and setting: under `CCCC[C@H]1C(=O)N(C)[C@@H](CCCC)C(=O)N[C@@H](CCCN)C(=O)N[C@H](C(=O)NCC(N)=O)CSCC(=O)N[C@@H](Cc2ccc(OC)cc2)C(=O)N(C)[C@@H](C)C(=O)N[C@@H](CC(=O)O)C(=O)N2CCC[C@H]2C(=O)N[C@@H](Cc2cnc[nH]2)C(=O)N[C@@H](CCC(=O)O)C(=O)N2C[C@H](O)C[C@H]2C(=O)N[C@@H](Cc2c[nH]c3ccccc23)C(=O)N[C@@H](CCN)C(=O)N[C@@H](Cc2c[nH]c3ccccc23)C(=O)N1C` [Example 7098] ({CH2CO}-Y(Me)[NMeA]DPHE[Hyp]W[Dab]W[NMeNle][NMeNle][Orn]CG-NH2; thioether N-14) stands 1 to 9.9 nM. For the compound `CCCC[C@H]1C(=O)N(C)[C@@H](CCCC)C(=O)N[C@@H](CCCN)C(=O)N[C@H](C(=O)NCC(N)=O)CSCC(=O)N[C@@H](Cc2ccc(OC)cc2)C(=O)N(C)[C@@H](C)C(=O)N[C@@H](CC(=O)O)C(=O)N2CCC[C@H]2C(=O)N[C@@H](Cc2cnc[nH]2)C(=O)N[C@@H](CCC(=O)O)C(=O)N2C[C@H](O)C[C@H]2C(=O)N[C@@H](Cc2c[nH]c3ccccc23)C(=O)N[C@@H](CC(=O)O)C(=O)N[C@@H](Cc2c[nH]c3ccccc23)C(=O)N1C` [Example 7099] ({CH2CO}-Y(Me)[NMeA]DPHE[Hyp]WDW[NMeNle][NMeNle][Orn]CG-NH2; thioether N-14), the IC50 under setting [1] lay within 10 to 99.9 nM.

With `CCCC[C@H]1C(=O)N(C)[C@@H](CCCC)C(=O)N[C@@H](CCCN)C(=O)N[C@H](C(=O)NCC(N)=O)CSCC(=O)N[C@@H](Cc2ccc(OC)cc2)C(=O)N(C)[C@@H](C)C(=O)N[C@@H](CC(N)=O)C(=O)N2CCC[C@H]2C(=O)N[C@@H](CN)C(=O)N[C@@H](CCC(=O)O)C(=O)N2C[C@H](O)C[C@H]2C(=O)N[C@@H](Cc2c[nH]c3ccccc23)C(=O)N[C@@H](CC(=O)O)C(=O)N[C@@H](Cc2c[nH]c3ccccc23)C(=O)N1C` [Example 7100] ({CH2CO}-Y(Me)[NMeA]NP[Dap]E[Hyp]WDW[NMeNle][NMeNle][Orn]CG-NH2; thioether N-14), the IC50 under setting [1] lay in the range of 1 to 9.9 nM. Take `CCCC[C@H]1C(=O)N(C)[C@@H](CCCC)C(=O)N[C@@H](CCCN)C(=O)N[C@H](C(=O)NCC(N)=O)CSCC(=O)N[C@@H](Cc2ccc(OC)cc2)C(=O)N(C)[C@@H](C)C(=O)N[C@@H](CC(=O)O)C(=O)N2CCC[C@H]2C(=O)N[C@@H](CN)C(=O)N[C@@H](CCC(=O)O)C(=O)N2C[C@H](O)C[C@H]2C(=O)N[C@@H](Cc2c[nH]c3ccccc23)C(=O)N[C@@H](CC(=O)O)C(=O)N[C@@H](Cc2c[nH]c3ccccc23)C(=O)N1C` [Example 7101] ({CH2CO}-Y(Me)[NMeA]DP[Dap]E[Hyp]WDW[NMeNle][NMeNle][Orn]CG-NH2; thioether N-14): the IC50 under setting [1] lay within 1 to 9.9 nM.

For `CCCC[C@H]1C(=O)N(C)[C@@H](CCCC)C(=O)N[C@@H](CCCN)C(=O)N[C@H](C(=O)NCC(N)=O)CSCC(=O)N[C@@H](Cc2ccc(OC)cc2)C(=O)N(C)[C@@H](C)C(=O)N[C@@H](CCN)C(=O)N2CCC[C@H]2C(=O)N[C@@H](CN)C(=O)N[C@@H](CCCCN)C(=O)N2C[C@H](O)C[C@H]2C(=O)N[C@@H](Cc2c[nH]c3ccccc23)C(=O)N[C@@H](CCN)C(=O)N[C@@H](Cc2c[nH]c3ccccc23)C(=O)N1C` [Example 7103] ({CH2CO}-Y(Me)[NMeA][Dab]P[Dap]K[Hyp]W[Dab]W[NMeNle][NMeNle][Orn]CG-NH2; thioether N-14), under setting [1], the IC50 was 10 to 99.9 nM. With `CCCC[C@H]1C(=O)N(C)[C@@H](CCCC)C(=O)N[C@@H](CCCN)C(=O)N[C@H](C(=O)NCC(N)=O)CSCC(=O)N[C@@H](Cc2ccc(OC)cc2)C(=O)N(C)[C@@H](C)C(=O)N[C@@H](CCN)C(=O)N2CCC[C@H]2C(=O)N[C@@H](Cc2cnc[nH]2)C(=O)N[C@@H](CCC(=O)O)C(=O)N2C[C@H](O)C[C@H]2C(=O)N[C@@H](Cc2c[nH]c3ccccc23)C(=O)N[C@@H](CC(=O)O)C(=O)N[C@@H](Cc2c[nH]c3ccccc23)C(=O)N1C` [Example 7104] ({CH2CO}-Y(Me)[NMeA][Dab]PHE[Hyp]WDW[NMeNle][NMeNle][Orn]CG-NH2; thioether N-14), the IC50 under setting [1] lay within 10 to 99.9 nM. Regarding `CCCC[C@H]1C(=O)N(C)[C@@H](CCCC)C(=O)N[C@@H](CCCN)C(=O)N[C@H](C(=O)NCC(N)=O)CSCC(=O)N[C@@H](Cc2ccc(OC)cc2)C(=O)N(C)[C@@H](C)C(=O)N[C@@H](CCN)C(=O)N2CCC[C@H]2C(=O)N[C@@H](CN)C(=O)N[C@@H](CCC(=O)O)C(=O)N2C[C@H](O)C[C@H]2C(=O)N[C@@H](Cc2c[nH]c3ccccc23)C(=O)N[C@@H](CC(=O)O)C(=O)N[C@@H](Cc2c[nH]c3ccccc23)C(=O)N1C` [Example 7105] ({CH2CO}-Y(Me)[NMeA][Dab]P[Dap]E[Hyp]WDW[NMeNle][NMeNle][Orn]CG-NH2; thioether N-14), the IC50 under setting [1] was in the range of 10 to 99.9 nM. With `CCCC[C@H]1C(=O)N(C)[C@@H](CCCC)C(=O)N[C@@H](CCCN)C(=O)N[C@H](C(=O)NCC(N)=O)CSCC(=O)N[C@@H](Cc2ccc(OC)cc2)C(=O)N(C)[C@@H](C)C(=O)N[C@@H](CC(=O)O)C(=O)N2CCC[C@H]2C(=O)N[C@@H](Cc2cnc[nH]2)C(=O)N[C@@H](CCCCN)C(=O)N2C[C@H](O)C[C@H]2C(=O)N[C@@H](Cc2c[nH]c3ccccc23)C(=O)N[C@@H](CC(=O)O)C(=O)N[C@@H](Cc2c[nH]c3ccccc23)C(=O)N1C` [Example 7106] ({CH2CO}-Y(Me)[NMeA]DPHK[Hyp]WDW[NMeNle][NMeNle][Orn]CG-NH2; thioether N-14), the IC50 under setting [1] was 1 to 9.9 nM. Turning to `CCCC[C@H]1C(=O)N(C)[C@@H](CCCC)C(=O)N[C@@H](CCCN)C(=O)N[C@H](C(=O)NCC(N)=O)CSCC(=O)N[C@@H](Cc2ccc(OC)cc2)C(=O)N(C)[C@@H](C)C(=O)N[C@@H](CCN)C(=O)N2CCC[C@H]2C(=O)N[C@@H](Cc2cnc[nH]2)C(=O)N[C@@H](CCCCN)C(=O)N2C[C@H](O)C[C@H]2C(=O)N[C@@H](Cc2c[nH]c3ccccc23)C(=O)N[C@@H](CC(=O)O)C(=O)N[C@@H](Cc2c[nH]c3ccccc23)C(=O)N1C` [Example 7107] ({CH2CO}-Y(Me)[NMeA][Dab]PHK[Hyp]WDW[NMeNle][NMeNle][Orn]CG-NH2; thioether N-14), for the setting “read-out: HTRF Human PD-L1/PD-1 Binding Assay IC50”, the IC50 worked out at 304 nM. Regarding `CCCC[C@H]1C(=O)N(C)[C@@H](CCCC)C(=O)N[C@@H](CCCN)C(=O)N[C@H](C(=O)NCC(N)=O)CSCC(=O)N[C@@H](Cc2ccc(OC)cc2)C(=O)N(C)[C@@H](C)C(=O)N[C@@H](CC(N)=O)C(=O)N2CCC[C@H]2C(=O)N[C@@H](CN)C(=O)N[C@@H](CCCCN)C(=O)N2C[C@H](O)C[C@H]2C(=O)N[C@@H](Cc2c[nH]c3ccccc23)C(=O)N[C@@H](CC(=O)O)C(=O)N[C@@H](Cc2c[nH]c3ccccc23)C(=O)N1C` [Example 7108] ({CH2CO}-Y(Me)[NMeA]NP[Dap]K[Hyp]WDW[NMeNle][NMeNle][Orn]CG-NH2; thioether N-14), the IC50 under setting [1] fell in the range of 1 to 9.9 nM. Turning to `CCCC[C@H]1C(=O)N(C)[C@@H](CCCC)C(=O)N[C@@H](CCC(=O)O)C(=O)N[C@H](C(=O)NCC(N)=O)CSCC(=O)N[C@@H](Cc2ccc(OC)cc2)C(=O)N(C)[C@@H](C)C(=O)N[C@@H](CC(N)=O)C(=O)N2CCC[C@H]2C(=O)N[C@@H](Cc2cnc[nH]2)C(=O)N[C@@H](CCC(=O)O)C(=O)N2C[C@H](O)C[C@H]2C(=O)N[C@@H](Cc2c[nH]c3ccccc23)C(=O)N[C@@H](CCN)C(=O)N[C@@H](Cc2c[nH]c3ccccc23)C(=O)N1C` [Example 7109] ({CH2CO}-Y(Me)[NMeA]NPHE[Hyp]W[Dab]W[NMeNle][NMeNle]ECG-NH2; thioether N-14), under setting [1], the IC50 fell in the range of 1 to 9.9 nM.
